Laboratory results: patent publication US4056625A, “Pesticidal compositions containing benzodioxole derivatives and methods of combating pests” (priority 1972, dated 1977)
Converted amounts (≈) assume the structure as drawn. Read-outs that look alike come from different tables or passages of the source.

Columns and labels:
[1] = test system: rats; test: Acute oral LD50 to rats (Example 76); format: in vivo, rat (Wystar strain); details: rat female, by stomach tube in 0.4% tragacanth, up to 5 days
Protocol: (§1) Mammalian toxicity was assessed by measuring the acute oral LD50 to rats and mice. Componds were dissolved or suspended in a 0.4% tragacanth solution and administered by stomach tube to the test animal. The mice used were 10 to 15 g weanlings of the Carshalton CFW strain whilst the rats were 30 to 40 g weanlings of Wystar strain. Three replicates per dosage rate were employed and the mortality was recorded daily for up to 5 days. The LD50 values were calculated as for those for insecticidal and acaricidal activity above.

[2] = Acute oral LD50 to rats (Example 76); format: in vivo, rat (Wystar strain); details: in vivo, po; rat male, by stomach tube in 0.4% tragacanth, up to 5 days
Protocol: as §1

[3] = test system: adult red spider mites (Tetranychus telarius); test: LC50 against adult red spider mites on sprayed French beans (Example 73); format: in vivo; details: read-out: LC50 value
Protocol: (§2) If complete kill was obtained at the highest dosage rate, the test was repeated using a logarithmically reducing dose regime until less than 50% mortality was recorded. The LC50 was then calculated from the line of best fit from the data plotted on log/provit analysis paper.
(§3) Similarly LC50 values were obtained against various pests as described in Examples 70-73 where, however, the LC50 values are abbreviated on a 0-6 scale where
Similarly, LC50 values were obtained for each of Compounds 1, 2, 4, 5 and 6 against adult red spider mites (Tetranychus telarius), of the order Acarina. The tests were carried out by spraying infected French beans with a 50% acetone water solution of the compound, containing 500 ppm of Lissapol NX as a wetting agent, and recording the mortality after 48 hours. The highest dosage rate employed was 1000 ppm which is equivalent to 10 lb/acre (11.20 kg/ha).

[4] = test system: larvae of the sheep maggot fly (Lucilia sericata); test: LC50 against sheep maggot fly larvae on dental rolls (Example 71); format: in vivo; details: for LC50: Lucilia sericata, read-out: LC50 value; for activity against sheep maggot fly (in words): compared with compound 5
Protocol: as §2, §3
Similarly, LC50 values were obtained for each of Compounds 1, 2, 3, 4, 5 and 6 against larvae of the sheep maggot fly (Lucilia sericata), of the order Diptera. The tests were carried out by placing newly hatched larvae on dental rolls contained in glass vials and soaked with 1 ml of blood serum containing the compound. The mortality was assessed after 24 hours. The highest dosage rate employed was 1000 ppm.

[5] = Acute oral LD50 to mice (Example 76); parameters: species or system mouse (Carshalton CFW strain); details: in vivo, mouse, by stomach tube in 0.4% tragacanth, up to 5 days
Protocol: as §1

[6] = test system: adult female houseflies (Musca domestica); test: LC50 against adult female houseflies on filter papers (Example 70); format: in vivo; details: for LC50 value: adult female houseflies, 24 hours, 0-6 scale (mg/ft^2); for activity against houseflies (in words): compared with compound 5
Protocol: as §2, §3
LC50 values were obtained for each of Compounds 1, 2, 3, 4, 5 and 6 against adult female houseflies (Musca domestica), of the order Diptera. The tests were carried out by adding acetone solutions of the compounds to 9 cm diameter filter papers in the base of 9 cm diameter crystallising dishes, placing the houseflies in the dishes after the acetone had evaporated, closing the dishes with Petri dish lids and counting the mortality after 24 hours. The highest dosage rate employed was 1000 mg/ft^2 (10.65 g/m^2).

[7] = test system: yellow fever mosquito (Aedes aegypti); test: Persistency against yellow fever mosquito on treated glass plates (Example 75); format: in vivo; details: 100 mg/ft^2 (1.065 g/m^2), adult female mosquitos, 7 day intervals until less than 50% mortality
Protocol: Persistency was measured against yellow fever mosquito (Aedes aegypti), of the order Diptera, by treating glass plates with acetone solutions of the compounds listed below to produce a deposit equivalent to 100 mg/ft^2 (1.065 g/m^2), and caging adult female mosquitos on these surfaces for 24 hours at 7 day intervals until less than 50% mortality was recorded.

[8] = test system: adult female houseflies (Musca domestica); test: Housefly mortality on treated filter papers (Examples 32-40); format: in vivo; details: 100 milligrams per square foot, after 24 hours
From the text: 9 centimeter diameter filter papers treated with aqueous acetone solutions of each of the compounds
at rates equivalent to 100 milligrams per square foot (100 mgm./0.09 m^2.) of active ingredient were placed in 9 centimeter diameter Petri dishes. Batches of adult female houseflies (Musca domestica) lightly anaesthetised with carbon dioxide were then introduced into the dishes and a glass lid placed over each.

[9] = test system: rats and mice; test: Mammalian toxicity (overall comparison); format: in vivo; details: compared with compound 5
Protocol: as §1

[10] = Solubility; format: physicochemical; details: compared with compound 5
[11] = test system: German cockroaches (Blattella germanica); test: Persistency against German cockroaches on treated glass plates (Example 74); format: in vivo; details: 100 mg/ft^2 (1.065 g/m^2), 2nd stage nymphs, 7 day intervals until less than 50% mortality
Protocol: Persistency was measured against German cockroaches (Blattella germanica), or the order Orthoptera, by treating glass plates with acetone solutions of the compunds listed below to produce a deposit equivalent to 100 mg/ft^2 (1.065 g/m^2), and caging 2nd stage nymph cockroaches on these surfaces for 48 hours at 7 day intervals until less than 50% mortality was recorded.

[12] = test system: 2nd stage nymph of the German cockroach (Blattella germanica); test: LC50 against German cockroach nymphs in treated glass tubes (Example 69); format: in vivo; details: for LC50 value: 2nd stage nymph German cockroach, 48 hours, 0-6 scale
Protocol: Compounds 2 and 4 and also 2,2-dimethyl-1,3- benzodioxol-4-yl N-methylcarbamate(compound 5) and 2,2-dimethyl-1,3-benzodioxol-4-yl N-acetyl-N-methylcarbamate (compound 6) were tested for activity against the 2nd stage nymph of the German cockroach (Blattella germanica), of the order Orthoptera, by treating the walls of glass tubes (9.0 cm high × 4.5 cm diameter) with acetone solutions of the compounds and after the acetone had evaporated caging the insects in the tubes for 48 hours. The highest dosage rate employed was 50 mg/ft^2 (532 mg/m^2).
as §2
The LC50 values are abbreviated on a 0-6 scale where

[13] = test system: larvae of the cattle tick (Boophilus microplus); test: LC50 against cattle tick larvae (Example 72); format: in vivo; details: Rhipicephalus microplus, 24 hours, 0-6 scale (ppm)
Protocol: as §2, §3
Similarly, LC50 values were obtained for each of Compounds 2 and 4 against larvae of the cattle tick (Boophilus microplus), of the order Acarina. The tests were carried out evaporating 1 ml of an acetone solution of the compound on 9 cm diameter filter papers, folding the papers twice in half after drying to give quadrant shaped packets and sealing the tick larvae therein for 24 hours by means of a paper clip. The highest dosage rate employed was 1000 ppm.

[14] = test system: sheep maggot fly (Lucila sericata); test: Persistency on sheep against sheep maggot fly; format: in vivo; details: compared with compound 5
[15] = test system: second instar larvae of the cabbage white butterfly (Pieris brassicae); test: Cabbage white butterfly larvae on treated cabbage leaf discs (Examples 41-48); format: in vivo; details: 10, 5, 1, 0.5 and 0.25 pounds per acre, three replications, after 48 hours
From the text: 7 centimeter diameter circular discs of cabbage leaves were painted with 1 milliliter aqueous acetone solutions of each of the following compounds:
in each case at concentrations equivalent to leaf applications of 10, 5, 1, 0.5 and 0.25 pounds per acre (11.2, 5.6, 1.12, 0.56 and 0.28 kg./hectare) of active ingredient. When the deposit on the leaf discs had dried, each leaf disc was placed in a 9 centimeter diameter Petri dish, infested with ten second instar larvae of the cabbage white butterfly (Pieris brassicae) and covered with a glass lid. Three replications were made with each compound at each concentration level.

[16] = test system: domestic and public health insect pests; test: Indoor treatment against domestic and public health insect pests; format: in vivo; details: 200 mg per square meter, aqueous spray containing 0.25% active ingredient; ants, bed bugs, fleas, houseflies, silverfish, mosquitoes, wasps, carpet beetles, crickets, cockroaches
From the text: In a preferred application, the compounds and especially 2,2-dimethyl-1,3-benzodioxol-4-yl N-methylcarbamate are used to combat domestic and public health insect pests. For this use, the compounds are generally applied indoors, e.g. in buildings or on ships, for example in food preparation or storage areas e.g. in houses, flats, warehouses and ships. The compounds are suitably applied at a rate of 50-2000, preferably about 50-1,000, for example 200, mg per square meter.

[17] = test system: first instar larvae of the sheep blowfly (Lucilia sericata); test: Sheep blowfly larvae on treated cotton wool pads (Examples 53-60); format: in vivo; details: 1/2 ml. of acetone solution on cotton wool pads, after 24 hours
Protocol: Cylindrical pads of cotton wool, approximate diameter 1 cm., length 2 cms. were treated with 1/2 ml. of acetone solutions of the following carbamates:
After leaving for 12 hours to dry, the pads were treated with 1 ml. of sheep blood serum and infested with 20 first instar larvae of the sheep blowfly (Lucilia sericata). After 24 hours, the blowflies were examined and found to be all dead; insects similarly infested on untreated pads were unaffected.

[18] = test system: adult apterous vetch aphids (Megoura viciae); test: Vetch aphids on sprayed field beans (Examples 49 and 50); format: in vivo; details: 100 parts per million, 50 gallons per acre, 24 hours
From the text: Aqueous suspensions containing 100 parts per million of 2,2-dimethyl-1,3-benzodioxol-4-yl N-methylcarbamate and 2,2-dimethyl-1,3-benzodioxol-4-yl N-acetyl-N-methylcarbamate were sprayed at a rate equivalent to 50 gallons per acre (585 liters per hectare) on young field beans (Vicia faba) infested with adult apterous vetch aphids (Megoura viciae). After treatment the plants were enclosed in glass cages with gauze tops for ventilation.

[19] = test system: first stage larvae of the cattle tick, Boophilus microplus; test: Cattle tick larvae in treated filter paper packets (Example 65); format: in vivo; details: 30 parts per million, 25° C, 24 hours
Protocol: Filter papers, diameter 9 cm., were treated with 1 ml. of acetone solutions containing 30 parts per million of 2,2-dimethyl-1,3-benzodioxol-4-yl N-methylcarbamate or 7-chloro-2,2-dimethyl-1,3-benzodioxol-4-yl N-methylcarbamate. When they had dried, they were folded into quadrant shaped packets, infested with 20 first stage larvae of the cattle tick, Boophilus microplus, closed with a metal clip and kept at 25° C for 24 hours.

SMILES	Acute oral LD50, rat female [1] [mg/kg body wt.]	LD50 at 120 h [2] [mg/kg]	LC50 ([3]; 48 h) [µg/mL]	LC50 ([4]; 24 h) [µg/mL]	LD50 at 120 h [5] [mg/kg]	LC50 value [6]	activity against houseflies (in words) [6]	mortality of houseflies [8]	mammalian toxicity (in words) [9]	solubility in organic solvents (in words) [10]	Persistency [11] [days]	activity against sheep maggot fly (in words) [4]	LC50 value [12]	activity against cockroaches (in words) [12]	LC50 [13] [µg/mL]	persistency on sheep against sheep maggot fly (in words) [14]	also measured
CC(=O)N(C)C(=O)Oc1cccc2c1OCO2 [Compound 1, 1,3-benzodioxol-4-yl N-acetyl-N-methylcarbamate]	> 1000	> 1000	100 to 299 (≈ 422 to 1260 µM)	30 to 99 (≈ 126 to 417 µM)	> 4000	5 (3-9 mg/ft^2 (32-106 mg/m^2))	as good or better activity against houseflies than does compound 5	all found to be dead	lower mammalian toxicity than does compound 5	higher solubility in organic solvents than is compound 5							Persistency [7]: 35 days
CCC(=O)N(C)C(=O)Oc1cccc2c1OC(C)(C)O2 [Compound 2, 2,2-dimethyl-1,3-benzodioxol-4-yl N-propionyl-N-methylcarbamate]			300 to 1000 (≈ 1070 to 3580 µM)	3 to 9 (≈ 10.7 to 32.2 µM)	280	5 (3-9 mg/ft^2 (32-106 mg/m^2))	as good or better activity against houseflies than does compound 5		lower mammalian toxicity than does compound 5	higher solubility in organic solvents than is compound 5	21 to 28	as active as compound 5 against sheep maggot fly	6 (<0.5 mg/ft^2 (<5.3 mg/m^2))	outstandingly good activity against cockroaches	3 to 9 (≈ 10.7 to 32.2 µM)	much better persistency on sheep	
CCCC(=O)N(C)C(=O)Oc1cccc2c1OC(C)(C)O2 [Compound 3, 2,2-dimethyl-1,3-benzodioxol-4-yl N-butyryl-N-methylcarbamate]	> 1000	> 1000		3 to 9 (≈ 10.2 to 30.7 µM)	2000	4 (10-29 mg/ft^2 (107-310 mg/m^2))	as good or better activity against houseflies than does compound 5	all found to be dead	lower mammalian toxicity than does compound 5	higher solubility in organic solvents than is compound 5		as active as compound 5 against sheep maggot fly					
CCCCC(=O)N(C)C(=O)Oc1cccc2c1OC(C)(C)O2 [Compound 4, 2,2-dimethyl-1,3-benzodioxol-4-yl N-pentanoyl-N-methylcarbamate]			300 to 1000 (≈ 976 to 3250 µM)	30 to 99 (≈ 97.6 to 322 µM)	170	4 (10-29 mg/ft^2 (107-310 mg/m^2))	as good or better activity against houseflies than does compound 5		lower mammalian toxicity than does compound 5	higher solubility in organic solvents than is compound 5	> 35		5 (0.15-0.5 mg/ft^2 (1.6-5.3 mg/m^2))	outstandingly good activity against cockroaches	30 to 99 (≈ 97.6 to 322 µM)	much better persistency on sheep	
CNC(=O)Oc1cccc2c1OC(C)(C)O2 [Compound 5, 2,2-dimethyl-1,3-benzodioxol-4-yl N-methylcarbamate]		45			45	4 (10-29 mg/ft^2 (107-310 mg/m^2))		all found to be dead					5 (0.15-0.5 mg/ft^2 (1.6-5.3 mg/m^2))	outstandingly good activity against cockroaches			mortality of cabbage white butterfly larvae [15]: all found to be dead; effectiveness against domestic and public health pests (in words) [16]: effective against a wide range of such pests; mortality of sheep blowfly larvae [17]: all dead; kill of vetch aphids [18]: complete kill of the aphids in 24 hours; LC50 ([3]; adult red spider mites, 48 hours, 0-6 scale (ppm)): > 1000 µg/mL; LC50 ([4]; sheep maggot fly larvae, 24 hours, 0-6 scale (ppm)): 3 to 9 µg/mL (≈ 13.4 to 40.3 µM); mortality of cattle tick larvae [19]: all the ticks in the treated filter papers were dead
